The results in this text go back to US20150140088A1, “SPIROSTEROID SYSTEMS ACTING AS NEUROPROTECTIVE AND ANTI-INFLAMMATORY AGENTS” (priority 2011, published 2015).

The experiment deals with PC12 cells exposed to L-glutamate. Briefly: Anti-glutamatergic effect on PC12 cells exposed to L-glutamate (MTT cellular vitality). Format: cell-based. Conditions: 10 μM; PC12 cells exposed to L-glutamate (20 mM) for 24 h; result in words. The method, then:
PC12 constitute a neuron-like cell line widely employed in several models of neurological diseases. The patophysiological mechanisms which can be simulated in those in vitro models, allows the use of PC12 cells in evaluation of therapeutic candidates.
The synthetic spirosteroids series (10 μM of each molecule) was evaluated on PC12 cells exposed to L-glutamate (20 mM) for 24 h. Previously, those cells were routinely cultivated in RPMI 1640 medium, supplemented with equine serum (10%) and fetal bovine serum (5%) in a 37° C. and 5% CO2 atmosphere. In the beginning of the experiment, cells were seeded in 96-well microplates at a cellular density of 150,000 cells/mL. After 24 h of exposition to glutamatergic damage and spirosteroids treatment, cellular vitality was determined with 3-(4,5-dimethylthiazol-2-yl)-2,5-diphenyltetrazolium bromide (MTT), which is metabolized by mitochondrial deshydrogenases in living cells. […] All molecules of the synthetic spirosteroids series were non cytotoxic at the concentration employed for the in vitro anti-glutamatergic assay (data no shown).

For the molecule `C[C@@H]1CC[C@@]2(OC1)O[C@H]1C[C@H]3[C@@H]4CC(=O)C5C[C@H](O)[C@H](O)C[C@]5(C)[C@H]4CC[C@]3(C)[C@H]1[C@@H]2C` (stereo partly drawn) [2α,3α-dyhydroxy-(25R)-spirostan-6-one], the “anti-glutamatergic and neuroprotector effect” value was “most active”.
Take `C[C@@H]1CC[C@@]2(OC1)O[C@H]1C[C@H]3[C@@H]4CC(=O)C5CC(=O)CC[C@]5(C)[C@H]4CC[C@]3(C)[C@H]1[C@@H]2C` (stereo partly drawn) [3,6-dione-(25R)-spirostan]: the “anti-glutamatergic and neuroprotector effect” value is “most active”.
